Tests used:
[1] = system: horse serum diluted with physiological common-salt solution, 2 mM CaCl2 (simulated dentinal fluid); experiment: Measurement of the protein precipitation (weight of dried precipitate); type: biochemical; details: for Precipitate: average of 5 measurements
Method: Furthermore, acids which also have calcium-precipitating properties in addition to protein-precipitating properties are particularly preferred. Protein and calcium-precipitating properties are detected in standardized tests. Protein precipitation is measured as described in Example 6, the acids to be examined in the solution described in Example 5 (2nd component) being present in a concentration of 0.2 M. The acid-containing solution is mixed with the protein solution described in Example 6 and the mass of the obtained precipitate is determined. According to the invention, acids which yield a pellet weight of >25 mg, preferably >30 mg and in particular >40 mg are preferred. The upper limit of the pellet weight is determined by the masses of the components used. Acids which yield a quantitative precipitation under the described conditions are particularly suitable according to the invention.
Furthermore, CaCl2 (2 mM) was added to the diluted protein solution in order to adjust the calcium-ion concentration to that of dentinal fluid.
500 μl of the protein solution was then reacted with […] of the composition to be tested and the mixture was left to stand for 30 minutes at room temperature, centrifuged and the obtained precipitates dried at 75° C. and weighed.
For protein precipitation, the solution (2nd component) described in Example 5 was used which was reacted with phosphonic acid in concentrations of 10 mM to 200 mM (cf. Table 1). 5 precipitations per concentration were carried out and then the average of the determinations was calculated.

C=C(COCCP(=O)(O)O)C(=O)O [Example 1, 2-[4-(dihydroxyphosphoryl)-2-oxa-butyl]-acrylic acid]
melting point: 119 to 120 °C
Protein precipitation (in words) ([1]; 150 mM acid): quantitative
Precipitate ([1]; acid concentration 10 mM in solution (2nd component) of Example 5): 55.3 mg
Precipitate ([1]; acid concentration 25 mM in solution (2nd component) of Example 5): 58.2 mg
Precipitate ([1]; acid concentration 50 mM in solution (2nd component) of Example 5): 58.8 mg
Precipitate ([1]; acid concentration 75 mM in solution (2nd component) of Example 5): 69.1 mg
Precipitate ([1]; acid concentration 100 mM in solution (2nd component) of Example 5): 70.8 mg
Precipitate ([1]; acid concentration 150 mM in solution (2nd component) of Example 5): 74.2 mg
Precipitate ([1]; acid concentration 200 mM in solution (2nd component) of Example 5): 72.3 mg
